In ChEMBL document CHEMBL1126388, “Synthesis of metabolically stable arylpiperazine 5-HT1A receptor agonists” (Bioorg Med Chem Lett, 1992):

Columns and labels:
[1] = molecular target: T1, 5-hydroxytryptamine receptor 1A (Mus musculus, UniProt Q64264); assay: Compound was tested for binding affinity to 5-hydroxytryptamine 1A receptor using [3H]8-OH-DPAT as a radioligand
T1 sequence (Q64264 whole entry): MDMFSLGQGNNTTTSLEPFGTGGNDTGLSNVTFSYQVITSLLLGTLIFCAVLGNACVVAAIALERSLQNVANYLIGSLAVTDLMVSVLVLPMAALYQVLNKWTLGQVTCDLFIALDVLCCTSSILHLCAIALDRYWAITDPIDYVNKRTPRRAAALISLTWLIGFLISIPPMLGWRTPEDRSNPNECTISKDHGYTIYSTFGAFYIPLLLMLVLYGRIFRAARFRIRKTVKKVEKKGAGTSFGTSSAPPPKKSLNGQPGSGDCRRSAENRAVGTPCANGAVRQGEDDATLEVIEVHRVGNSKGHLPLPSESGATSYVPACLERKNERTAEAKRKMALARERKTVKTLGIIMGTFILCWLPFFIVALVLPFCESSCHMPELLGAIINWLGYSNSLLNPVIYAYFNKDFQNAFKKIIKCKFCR

[2] = test system: Mus musculus; assay: Effective dose required for hypothermia activity after subcutaneous administration at 1.9 degree F temp in mouse; type: functional; settings: sc
[3] = test system: Mus musculus; assay: Effective dose required for hypothermia activity after >120 min of oral administration at 4.0 degree F temp in mouse; type: functional; settings: 2 h
[4] = test system: Mus musculus; assay: Effective dose required for hypothermia activity after subcutaneous administration at 6.4 degree F temp in mouse; type: functional; settings: sc
[5] = test system: Mus musculus; assay: Effective dose required for hypothermia activity after 20 min of oral administration at 2.9 degree F temp in mouse; type: functional
[6] = test system: Mus musculus; assay: Effective dose required for hypothermia activity after subcutaneous administration at 3.8 degree F temp in mouse; type: functional; settings: sc

Row | Ki [1] [nM] | Compound | ED50 [2] [µmol/kg] | ED50 [3] [µmol/kg] | ED50 [4] [µmol/kg] | ED50 [5] [µmol/kg] | ED50 [6] [µmol/kg]
1 | 43.7 | O=C1c2ccccc2S(=O)(=O)N1C[C@@H]1C[C@@H]1CN1CCN(c2ncccn2)CC1 | > 0.055 |  |  |  | 
2 | 8.7 | O=C1c2ccccc2S(=O)(=O)N1C[C@H]1C[C@@H]1CN1CCN(c2ncccn2)CC1 |  | 0.19 | 0.0032 |  | 
3 | 12.1 | O=C1c2ccccc2S(=O)(=O)N1CCCCN1CCN(c2ncccn2)CC1 [IPSAPIRONE] |  |  |  | 0.23 | 0.00527
